Experimental data: patent US7273877B2, “5-substituted-4-[(substituted phenyl) amino]-2-pyridone derivatives” (Warner-Lambert Company, LLC, priority 2003, dated 2007)

How the values were obtained:
[1] = test system: phosphorylation of MAP kinase (ERK) in murine colon 26 (C26) carcinoma cells; assay: Cellular inhibition of ERK phosphorylation, C26ELSA (pERK ELISA format); format: cell-based; conditions: Mus musculus, 1 h, C26 cells treated with test compound for one hour at 37° C.
Method: (§1) MEK inhibitors were evaluated by determining their ability to inhibit phosphorylation of MAP kinase (ERK) in murine colon 26 (C26) carcinoma cells. Since ERK1 and ERK2 represent the only known substrates for MEK1and MEK2, the measurement of inhibition of ERK phosphorylation in cells provides direct read out of cellular MEK inhibition by the compounds of the invention. Detection of phosphorylation of ERK was carried out either by Western blot or ELISA format. Briefly, the assays involve treatment of exponentially growing C26 cells with varying concentrations of the test compound (or vehicle control) for one hour at 37° C. For Western blot assay, cells were rinsed free of compound/vehicle and lysed in a solution containing 70 mM NaCl, 50 mM glycerol phosphate, 10 mM HEPES, pH 7.4, 1% Triton X-100, 1 mM Na3VO4, 100 μM PMSF, 10 μM leupeptin and 10 μM pepstatin. Supernatants were then subjected to gel electrophoresis and hybridized to a primary antibody recognizing dually phosphorylated ERK1 and ERK2. To evaluate total MAPK levels, blots were subsequently ‘stripped’ and re-probed with a 1:1 mixture of polyclonal antibodies recognizing unphosphorylated ERK1 and ERK2. For pERK ELISA assay, pERK TiterZyme Enzyme immunometric Assay kits were acquired from Assay Designs, Inc (Ann Arbor, Mich.). Briefly, cells were harvested in lysis solution containing 50 mM β-glycerophosphate, 10 mM HEPES, ph7.4, 70 mM NaCl, 2 mM EDTA and 1% SDS and protein lysates were diluted 1:15 with supplied Assay buffer prior to the execution of the assay. The subsequent steps were carried out essentially as recommended by the manufacturer.
(§2) The inhibition data generated by the above protocols is disclosed in Table I. If several concentrations of inhibitor were tested, IC50 values (the concentration which gives 50% inhibition) were determined graphically from the dose response curve for % inhibition. Otherwise, percent inhibitions at measured concentrations are reported.

[2] = test system: phosphorylation of MAP kinase (ERK) in murine colon 26 (C26) carcinoma cells; assay: Cellular inhibition of ERK phosphorylation, C26CPA1; format: cell-based; conditions: Mus musculus, 1 h; C26 cells treated with test compound for one hour at 37° C.
Method: as §1, §2

melting point	IC50 [1]	IC50 [2]	SMILES
252 to 254 °C	≥ 5000 nM	–	CNC(=O)c1cn(C)c(=O)cc1Nc1ccc(I)cc1F [Example 51, 4-(2-Fluoro-4-iodoanilino)-N,1-dimethyl-6-oxo-1,6-dihydro-3-pyridinecarboxamide]
100 to 105 °C	≥ 5000 nM	–	Cn1cc(C(=O)NC(CO)(CO)CO)c(Nc2ccc(I)cc2F)cc1=O [Example 47, 4-(2-Fluoro-4-iodoanilino)-N-[2-hydroxy-1,1-bis(hydroxymethyl)ethyl]-1-methyl-6-oxo-1,6-dihydro-3-pyridinecarboxamide]
117 to 122 °C	≥ 5000 nM	–	Cn1cc(C(=O)OCC(N)(CO)CO)c(Nc2ccc(I)cc2F)cc1=O [Example 48, 2-Amino-3-hydroxy-2-(hydroxymethyl)propyl-4-(2-fluoro-4-iodoanilino)-1-methyl-6-oxo-1,6-dihydro-3-pyridinecarboxylate]
285 to 288 °C	≥ 5000 nM	–	Cc1ccc(Nc2cc(=O)n(C)cc2C(N)=O)c(F)c1 [Example 37, 4-(2-Fluoro-4-methylanilino)-1-methyl-6-oxo-1,6-dihydro-3-pyridinecarboxamide]
141 to 143 °C	3900 nM	–	CCOC(=O)c1cn(C)c(=O)cc1Nc1ccc2c(c1)CCC2 [Example 58, 4-(Indan-5-ylamino)-1-methyl-6-oxo-1,6-dihydro-pyridine-3-carboxylic acid ethyl ester]
210 to 213 °C	–	1410 nM	NC(=O)c1cn(CC(O)CO)c(=O)cc1Nc1ccc(I)cc1F (stereo not shown) [Example 31, 1-(2,3-Dihydroxypropyl)-4-(2-fluoro-4-iodoanilino)-6-oxo-1,6-dihydro-3-pyridinecarboxamide]
269 to 272 °C	21 nM	–	C#Cc1ccc(Nc2cc(=O)n(C)cc2C(N)=O)c(F)c1 [Example 17, 4-(4-Ethynyl-2-fluoroanilino)-1-methyl-6-oxo-1,6-dihydro-3-pyridinecarboxamide]
199 to 202 °C	≥ 5000 nM	–	O=C(O)Cn1cc(C(=O)NCCCO)c(Nc2ccc(I)cc2F)cc1=O [Example 24, (4-(2-Fluoro-4-iodoanilino)-5-{[(3-hydroxypropyl)amino]carbonyl}-2-oxo-1(2H)-pyridinyl)acetic acid]
320 to 325 °C	110 nM	–	NC(=O)c1c[nH]c(=O)cc1Nc1ccc(I)cc1F [Example 19, 4-(2-Fluoro-4-iodoanilino)-6-oxo-1,6-dihydro-3-pyridinecarboxamide]
78 to 83 °C	93 nM	–	Cn1cc(C(=O)NCCCO)c(Nc2ccc3ccccc3c2)cc1=O [Example 42, N-(3-Hydroxypropyl)-1-methyl-4-(2-naphthylamino)-6-oxo-1,6-dihydro-3-pyridinecarboxamide]
–	150 nM	–	CSc1ccc(Nc2cc(=O)n(C)cc2C(=O)NCCCO)c(F)c1 [Example 85, 4-(2-Fluoro-4-methylsulfanyl-phenylamino)-1-methyl-6-oxo-1,6-dihydro-pyridine-3-carboxylic acid (3-hydroxy-propyl)-amide]
148 to 151 °C	4.9 nM	43.8 nM	Cn1cc(C(=O)NOCCO)c(Nc2ccc(I)cc2F)cc1=O [Example 1, 4-(2-Fluoro-4-iodoanilino)-N-(2-hydroxyethoxy)-1-methyl-6-oxo-1,6-dihydro-3-pyridinecarboxamide]
253 to 255 °C	≥ 5000 nM	–	O=C(NCCCO)c1c[nH]c(=O)cc1Nc1ccc(I)cc1F [Example 14, 4-(2-Fluoro-4-iodoanilino)-N-(3-hydroxypropyl)-6-oxo-1,6-dihydro-3-pyridinecarboxamide]
214 to 216 °C	630 nM	–	Cn1cc(C(N)=O)c(Nc2ccc(CCCO)cc2F)cc1=O [Example 21, 4-[2-Fluoro-4-(3-hydroxypropyl)anilino}-1-methyl-6-oxo-1,6-dihydro-3-pyridinecarboxamide]
177 to 179 °C	≥ 5000 nM	–	Cn1cc(C(=O)NCCO)c(Nc2ccc(CCCO)cc2F)cc1=O [Example 7, 4-[2-Fluoro-4-(3-hydroxypropyl)anilino]-N-(2-hydroxyethyl)-1-methyl-6-oxo-1,6-dihydro-3-pyridinecarboxamide]
153 to 154 °C	≥ 5000 nM	–	CCOC(=O)c1cn(C)c(=O)cc1Nc1ccc(C)c(C)c1 [Example 57, 4-(3,4-Dimethyl-phenylamino)-1-methyl-6-oxo-1,6-dihydro-pyridine-3-carboxylic acid ethyl ester]
–	> 1000 nM	–	CSc1ccc(Nc2cc(=O)n(C)cc2-c2nnc(NC(CO)CO)o2)c(F)c1 [Example 91, 4-(2-Fluoro-4-methylsulfanyl-phenylamino)-5-[5-(2-hydroxy-1-hydroxymethyl-ethylamino)-[1,3,4]oxadiazol-2-yl]-1-methyl-1H-pyridin-2-one]
81 to 86 °C	–	60 nM	Cn1cc(C(=O)NCCCO)c(Nc2ccc(I)cc2F)cc1=O [Example 5, 4-(2-Fluoro-4-iodoanilino)-N-(3-hydroxypropyl)-1-methyl-6-oxo-1,6-dihydro-3-pyridinecarboxamide]
161 to 164 °C	≥ 5000 nM	–	Cn1cc(C(=O)NCCCO)c(Nc2ccc(CCCO)cc2F)cc1=O [Example 9, 4-[2-Fluoro-4-(3-hydroxypropyl)anilino]-N-(3-hydroxypropyl)-1-methyl-6-oxo-1,6-dihydro-3-pyridinecarboxamide]
282 to 284 °C	120 nM	–	Cn1cc(C(N)=O)c(Nc2ccc(Br)cc2F)cc1=O [Example 40, 4-(4-Bromo-2-fluoroanilino)-1-methyl-6-oxo-1,6-dihydro-3-pyridinecarboxamide]
254 to 256 °C	≥ 5000 nM	–	O=C(NCCO)c1c[nH]c(=O)cc1Nc1ccc(I)cc1F [Example 11, 4-(2-Fluoro-4-iodoanilino)-N-(2-hydroxyethyl)-6-oxo-1,6-dihydro-3-pyridinecarboxamide]
215 to 217 °C	430 nM	–	C=CCn1cc(C(N)=O)c(Nc2ccc(I)cc2F)cc1=O [Example 30, 1-Allyl-4-(2-fluoro-4-iodoanilino)-6-oxo-1,6-dihydro-3-pyridinecarboxamide]
–	–	2820 nM	CSc1ccc(Nc2cc(=O)n(C)cc2C(=O)NC(CO)CO)c(F)c1 [Example 89, 4-(2-Fluoro-4-methylsulfoanyl-phenylamino)-1-methyl-6-oxo-1,6, dihydro-pyridine-3-carboxylic acid (2-hydroxy-1-hydroxymethyl-ethyl)-amide]
–	> 5000 nM	–	CSc1ccc(Nc2cc(=O)n(C)cc2-c2nnc(NCCO)o2)c(F)c1 [Example 90, 4-(2-Fluoro-4-methylsulfanyl-phenylamino)-5-[5-(2-hydroxy-ethylamino)[1,3,4]oxadiazol-2-yl]-1-methyl-1H-pyridin-2-one]
–	–	76 nM	Cn1cc(C(N)=O)c(Nc2ccc(Cl)c(Cl)c2Cl)cc1=O [Example 67, 1-Methyl-6-oxo-4-(2,3,4-trichloro-phenylamino)-1,6-dihydro-pyridine-3-carboxylic acid amide]
